{"source": "paper PMC12606464", "about": "“Investigating NFE2L1 activators for targeted protein aggregate clearance: a follow-up study” (RSC Medicinal Chemistry, 2025)", "type_in_all_cases": "cell-based, human", "key": {"IRE1/XBP1s": {"test_system": "IRE1/XBP1s", "assay": "XBP1 endoplasmic reticulum stress reporter assay (CMV-XBP-GLuc)", "details": "Figure S5; for Mean 2 (mean of log2-transformed values, treatment; DMSO = 0): N = 3; for Mean diff, DMSO vs. treatment (log2-transformed values): Dunnett's multiple comparisons test", "from_the_text": "Next, we investigated whether the selected RUN compounds activate the NFE2L1 transcriptional program without triggering the unfolded protein response (UPR), a crucial cellular process induced by the accumulation of unfolded proteins in the endoplasmic reticulum (ER), potentially leading to ER stress. To monitor this, an alternative reporter was used to assess the activation of IRE1/XBP1s.[47] IRE1 is a bifunctional serine/threonine kinase and endoribonuclease embedded in the ER membrane, playing a central role in UPR signaling. Its RNase activity facilitates the splicing of X-box binding protein 1 (XBP1) mRNA. The spliced XBP1 acts as a transcription factor, promoting the re-establishment of ER homeostasis by upregulating genes involved in the ER-associated degradation (ERAD) pathway.[48–50] The reporter contains Gaussia luciferase positioned out of frame downstream of the XBP1 splice site, ensuring that active luciferase translation occurs only in the presence of ER stress.[51,52] Cells transfected with this reporter were treated with RUN compounds at 1, 5, and 10 μM, and luciferase activity was measured.\nFigure S5: Impact of RUN compounds on ER stress-induced activation of the XBP1 reporter.\nHEK293 cells were transfected with the CMV-XBP-GLuc reporter plasmid and allowed to stabilize overnight. Following stabilization, the cells were treated with MG132 or various concentrations of the test compounds (1, 2, 3, 5, 7.5, and 10 µM) for 16 hours. The Gaussia luciferase signal, which reflects XBP1 mRNA splicing, was adjusted based on cell viability as measured by the alamarBlue assay. Data are represented as Geomean ± GeoSD of three independent experiments ( n = 3. Statistical comparison of MG132 and RUN compounds vs DMSO and RUN compounds vs MG132 was performed on log2-transformed values using two-way repeated-measures ANOVA with Geisser –Greenhouse correction, followed by Dunnett’s multiple comparisons test with individual variances computed for each comparison. Results of the analysis are shown in Supplementary Table S15. […]\nGraphPad Prism (v 10.6.1).\n2.8 XBP1-endoplasmic reticulum (ER) stress reporter assay\nHEK293 cells were seeded in 6-well plates and incubated for 24 hours before being transfected with a plasmid containing the CMV-XBP-Gluc reporter using Lipofectamine 2000.(4) After 6 hours, the transfected cells were subsequently transferred to 384-well plates, stabilized overnight, and treated with the proteasome inhibitor and ER stress inducer MG132 and/or various concentrations of RUN compounds (1, 5, and 10 µM) or vehicle (DMSO) for 16 hours. Luciferase activity was normalized to cell viability, which was assessed using the alamarBlue assay. The results are expressed as the fold change compared with the DMSO control, with the experiment conducted in biological triplicate. […]"}, "HEK293 cells": {"test_system": "HEK293 cells", "assay": "alamarBlue cytotoxicity assessment in HEK293 cells", "details": "HEK293, alamarBlue, 16 h; concentration not given", "procedure": "Figure S2: Concentration-dependent cytotoxicity assessment of RUN compounds.\nHEK293 cells were treated for 16 hours with increasing concentrations of RUN compounds (1.25 µM; 2.5 µM; 5; 7.5 and 10 µM) or DMSO (negative control). Cell viability was determined using the alamarBlue assay following the protocol of Riss.(1) Data are presented as means ± SD from three independent experiments (n = 3). Statistical analysis was done using repeated measures one-way ANOVA with Geisser–Greenhouse correction, followed by Dunnett’s multiple comparisons test. *p<0.05. Detailed results of the analysis are shown in […]\n(1 picture or pasted object on this page, not shown here)\n(§1) 2 Biology Experimental Procedures\n(§2) Safety statement: No unexpected or unusually high safety hazards were encountered. […]\nCell lines were sourced from the ATCC (USA) and/or ECACC (UK), namely HCT116 (human colorectal carcinoma), ATCC CCL-247 (RRID:CVCL_0291), HEK-293 (human embryonic kidney), ATCC CRL-1573 (RRID:CVCL_0045), SH-SY5Y (human neuroblastoma), ATCC CRL-2266 (RRID:CVCL_0019). The characteristics of DDI2 knockout cells derived from HCT116 cells have been described previously (Sedlacek et al., 2025). All cell lines were tested for mycoplasma contamination. Most of the cell lines were cultured in Dulbecco's Modified Eagle Medium (DMEM) enriched with 10% fetal bovine serum (FBS) and 2 mM L-glutamine, under standard conditions of 37 °C with 5% CO₂. DNA transfection was performed with Lipofectamine 2000, following the manufacturer's instructions. Transgenic cells were then selected with either G418 (400 µg/mL) or hygromycin B (450 µg/mL), based on the selection marker encoded by the plasmid used. […]"}, "NFE2L1 pathway": {"test_system": "NFE2L1 pathway", "assay": "3×PSMA4-ARE-LUC dual luciferase reporter assay in HEK293 cells", "details": "Homo sapiens; 5 μM, 16 h, HEK293, luminescence relative to DMSO-treated cells; read-out: NFE2L1 activation [5 μM]", "from_the_text": "In our previous work,[43] we developed a library of NFE2L1 stimulators using a cell-based luciferase reporter assay. This system was based on three tandem copies of the antioxidant response element (ARE) derived from the NFE2L1 target gene proteasome subunit alpha type-4 (3xPSMA4, PSMA4-ARE-LUC). It was designed to detect the proteasome “bounce-back” response induced by proteasome inhibitors such as MG132 or bortezomib.[22,43,45,46] The reporter assay was adapted to a 384-well format and used to evaluate a new set of RUN compounds designed around the structural framework of the RUN-47 activator. We focused on identifying compounds that increased the 3×PSMA4-ARE-LUC signal (Fig. 1A), while simultaneously assessing cytotoxicity (see the SI, Fig. S2). […] In contrast, thiourea- and urea-containing derivatives generally produced only weak to intermediate responses, rarely exceeding a fold change of 7.\nFig. 1 (A) Targeted library screening of RUN compounds using the 3×PSMA4-ARE-LUC dual reporter assay in HEK293 cells. Cells were exposed to RUN compounds (5 μM) for 16 hours, and luciferase activity was measured. Data are presented as the mean ± SD from three independent experiments (n = 3). Results are shown as a fold change in luminescence relative to DMSO-treated cells. Selected hit compounds are highlighted in distinct colours. (B) RUN-89 specifically activates the NFE2L1 pathway. The DDI2 knockout (KO) and parental (WT) HCT116 cells were transfected with the 3×PSMA4-ARE-LUC reporter and treated with 0.5 μM bortezomib (BTZ) and 5 μM RUN-89 for 16 hours. Data are presented as the Geomean ± GeoSD of three independent experiments (n = 3). Statistical analysis was performed on log2-transformed values using two-way repeated-measures ANOVA followed by Šídak's multiple comparison test. (C) RUN-89 selectively triggers downstream signaling events associated with NFE2L1 gene expression. HEK293 cells were transfected with lipid nanoparticles (LNPs) carrying siRNAs targeting NFE2L1 or NFE2L2. LNPs formulated with non-targeting siRNA served as a negative control. Following 24 hours of incubation, cells were treated with 7.5 μM RUN-89 or DMSO (vehicle) for an additional 16 hours. Expression of the proteasomal subunit gene PSMC4 was then quantified by RT-qPCR. Data are shown as the Geomean ± GeoSD from three independent biological replicates (n = 3). Log2-transformed data were analyzed using two-way repeated-measures ANOVA with the Geisser–Greenhouse correction, followed by Tukey's multiple comparison test with individual variances computed for each comparison. Additional results for NFE2L1, NFE2L2, PSMB7, and PSMD12 are presented in SI Fig. S10.\nFigure S1: Concentration–response of luciferase cell-based assay (PSMA4-ARE-luc2P reporter) on treatment with RUN-81, RUN-89, and RUN-94. Concentration is plotted on the X-axis. Dose–response relationships were analyzed using a four-parameter logistic curve (4PL), or a bell-shaped dose-response curve, both with weighting 1/Y^2. Dotted lines represent 95% confidence bands. Calculated EC₅₀ values, curve parameters, and asymmetrical confidence intervals are summarized in the accompanying table . Data are presented as mean ± SD from four independent experiments (n=4).\nas §1, §2\nMost of the cell lines were cultured in Dulbecco's Modified Eagle Medium (DMEM) enriched with 10% fetal bovine serum (FBS) and 2 mM L-glutamine, under standard conditions of 37 °C with 5% CO₂. DNA transfection was performed with Lipofectamine 2000, following the manufacturer's instructions. Transgenic cells were then selected with either G418 (400 µg/mL) or hygromycin B (450 µg/mL), based on the selection marker encoded by the plasmid used. Cell viability was evaluated using the […]"}, "SNCA-EGFP": {"test_system": "SNCA-EGFP", "assay": "SNCA-EGFP degradation in SH-SY5Y cells", "procedure": "This reporter is prone to aggregation because of its slow protein turnover. To assess compound efficacy, we measured the fluorescence signal of GFP-tagged synuclein within aggregates.\nThe GFP fluorescence signal was then normalized to that of the DMSO control and the cell number. The experiment was performed in at least five biological replicates. Statistical analysis was performed using paired t-tests with Holm–Šídák correction for multiple comparisons (α = […]\nSH-SY5Y cells stably expressing SNCA-EGFP were seeded on a plate and allowed to […]\ntadalafil (5 µM), or RUN compounds at a concentration of 1 µM or treated with an equivalent volume of DMSO dissolved in buffer as a vehicle control. The treatment was performed for 16 hours and then fluorescence was measured. The GFP signal intensity was normalized to both the DMSO control and the cell count."}, "[1]": {"details": "SH-SY5Y, SNCA-EGFP degron, Figure S7"}}, "note": "Peptide text beside a SMILES is read from it. * marks the point of attachment. Cbz = O=C(OCc1ccccc1)*", "data": [{"smiles": "CC(C)C[C@@H](C=O)NC(=O)[C@H](CC(C)C)NC(=O)[C@H](CC(C)C)NC(=O)OCc1ccccc1", "note": "[MG132] (Cbz-Leu-Leu-Leu-aldehyde)", "values": [{"measurement": "Mean 2 (mean of log2-transformed values, treatment; DMSO = 0)", "setting": "IRE1/XBP1s; 1 µM", "value": 2.106}, {"measurement": "Mean 2 (mean of log2-transformed values, treatment; DMSO = 0)", "setting": "IRE1/XBP1s; 5 µM", "value": 2.725}, {"measurement": "Mean 2 (mean of log2-transformed values, treatment; DMSO = 0)", "setting": "IRE1/XBP1s; 10 uM", "value": 3.956}, {"measurement": "Mean diff, DMSO vs. treatment (log2-transformed values)", "setting": "IRE1/XBP1s; DMSO vs. 1 µM", "value": -2.106}, {"measurement": "Mean diff, DMSO vs. treatment (log2-transformed values)", "setting": "IRE1/XBP1s; DMSO vs. 5 µM", "value": -2.725}, {"measurement": "Mean diff, DMSO vs. treatment (log2-transformed values)", "setting": "IRE1/XBP1s; DMSO vs. 10 uM", "value": -3.956}]}, {"smiles": "COc1ccc(/C=C2\\CN(C(=O)Cn3ccnc3)C/C(=C\\c3ccc(OC)c(OC)c3)C2=O)cc1OC", "note": "[RUN-111]", "values": [{"measurement": "Tox [% of ctrl.]", "setting": "HEK293 cells", "value": "78% of ctrl."}, {"measurement": "fold induction at 5 µM", "setting": "NFE2L1 pathway", "value": 2.7}]}, {"smiles": "COc1ccc(/C=C2\\CN(C(=O)CN3CCOCC3)C/C(=C\\c3ccc(OC)c(OC)c3)C2=O)cc1OC.O=C(O)C(F)(F)F", "note": "[RUN-112]", "values": [{"measurement": "Tox [% of ctrl.]", "setting": "HEK293 cells", "value": "81% of ctrl."}, {"measurement": "fold induction at 5 µM", "setting": "NFE2L1 pathway", "value": 6.6}]}, {"smiles": "COc1ccc(/C=C2\\CN(C(=O)C3CCCN3)C/C(=C\\c3ccc(OC)c(OC)c3)C2=O)cc1OC", "note": "(centres unmarked) [RUN-113]", "values": [{"measurement": "Tox [% of ctrl.]", "setting": "HEK293 cells", "value": "94% of ctrl."}, {"measurement": "fold induction at 5 µM", "setting": "NFE2L1 pathway", "value": 3.8}]}, {"smiles": "COc1ccc(/C=C2\\CN(C(=O)CCN(C)C)C/C(=C\\c3ccc(OC)c(OC)c3)C2=O)cc1OC.O=C(O)C(F)(F)F", "note": "[RUN-114]", "values": [{"measurement": "Tox [% of ctrl.]", "setting": "HEK293 cells", "value": "92% of ctrl."}, {"measurement": "fold induction at 5 µM", "setting": "NFE2L1 pathway", "value": 3.1}]}, {"smiles": "COc1ccc(/C=C2\\CN(C(=O)CCCN)C/C(=C\\c3ccc(OC)c(OC)c3)C2=O)cc1OC", "note": "[RUN-115]", "values": [{"measurement": "Tox [% of ctrl.]", "setting": "HEK293 cells", "value": "85% of ctrl."}, {"measurement": "fold induction at 5 µM", "setting": "NFE2L1 pathway", "value": 1.8}]}, {"smiles": "CCN(CC)CC(=O)N1C/C(=C\\c2ccc(OC)c(OC)c2)C(=O)/C(=C/c2ccc(OC)c(OC)c2)C1.O=C(O)C(F)(F)F", "note": "[RUN-116]", "values": [{"measurement": "Tox [% of ctrl.]", "setting": "HEK293 cells", "value": "78% of ctrl."}, {"measurement": "fold induction at 5 µM", "setting": "NFE2L1 pathway", "value": 3.1}]}, {"smiles": "COc1ccc(/C=C2\\CN(C(=O)CCN)C/C(=C\\c3ccc(OC)c(OC)c3)C2=O)cc1OC", "note": "[RUN-117]", "values": [{"measurement": "Tox [% of ctrl.]", "setting": "HEK293 cells", "value": "83% of ctrl."}, {"measurement": "fold induction at 5 µM", "setting": "NFE2L1 pathway", "value": 1}]}, {"smiles": "CN1CC(=O)N2[C@H](c3ccc4c(c3)OCO4)c3[nH]c4ccccc4c3C[C@@H]2C1=O", "note": "[tadalafil, reference compound]", "values": [{"measurement": "EGFP-SNCA aggregation (GFP signal)", "setting": "SNCA-EGFP; SH-SY5Y SNCA-EGFP, 16 h, RUN compounds 1 μM, PD169316 3 μM, tadalafil 5 μM", "value": "reduction"}, {"measurement": "Geometric mean of ratios (paired t tests, Treatment vs Control = 100)", "setting": "SNCA-EGFP; [1]", "value": -20.51}, {"measurement": "Geometric mean, Treatment (Control = 100)", "setting": "SNCA-EGFP; [1]", "value": 79.49}]}]}
